Results on 16 compounds are retold here after PMC4862670, “Biochemical Effect of Resistance Mutations against Synergistic Inhibitors of RSV RNA Polymerase” (PLoS ONE, 2016).

Values joined by “and” are separate entries in the source; they are usually repeats but may differ in a detail not shown here. Identical values can stand only once. Like-named read-outs stand apart in the source and are kept apart here.

Data set [1] deals with T1, QUAD RSV L-P (M628L, A789V, L795I, I796V) (Human respiratory syncytial virus A, UniProt P28887, A789V/I796V/L795I/M628L). As to the kind of experiment: Single nucleotide incorporation (primer extension) by recombinant RSV L-P, QUAD mutant. Format: biochemical. The conditions noted are these: for Resistance (QUADdiscrimination / WTdiscrimination): QUAD vs WT RSV L-P; for Km / Discrimination (Km NTP analog / Km NTP): QUAD RSV L-P; for Km: single nucleotide incorporation.

In data set [2] the target is T2, WT RSV L-P (Human respiratory syncytial virus A, UniProt P28887).
T2 construct: made in house; host or cells: insect cells
Format: biochemical. The procedure:
The recombinant RSV polymerase complex was produced by co-expressing the L and P proteins of RSV in insect cells as previously described. Unless otherwise specified, RNA polymerase reaction samples consisted of 0.2 μM of an oligonucleotide template sequence derived from the RSV leader promoter (5'-[…]-3') and 0.2 μM recombinant RSVL-P polymerase together with 200 μM 5'-pACGC primer, mixed in a buffer containing 20 mM Tris pH 7.5, 10 mM KCl, 2 mM dithiothreitol, 0.5% triton X-100, 10% DMSO, 0.2 U/μL RNasin (Ambion), and 6 mM MgCl2. Reactions were started by adding specific NTPs to a final volume of 10 μL and incubated at 30°C. The radioisotope tracer used for this assay was α^33P-GTP. To measure the incorporation of GTP analogs, the oligonucleotide template sequence was modified to 5'-[…]-3'. Reactions were stopped after 30 minutes by adding an equal volume of gel loading buffer (Ambion). Samples were denatured at 95°C for 5 minutes, and run for 1.5 hours at 80 W in a 22.5% polyacrylamide urea sequencing gel. After the gel was dried, the product of migration was exposed to a phosphor-screen and scanned on a Typhoon phosphorimager (GE Healthcare) and quantified using ImageQuant (GE Healthcare). For each enzyme, the level of NTP analog discrimination was calculated as Km NTP analog / Km NTP, and the corresponding resistance as Mutantdiscrimination / WTdiscrimination.

Data set [3] concerns Nc1ccn([C@@H]2O[C@](CCl)(COP(=O)(O)OP(=O)(O)OP(=O)(O)O)[C@@H](O)[C@H]2O)c(=O)n1. As to the kind of experiment: purified protein, by the assay type. The conditions noted are these: pH 7.5.
Data set [4] concerns [N-]=[N+]=N[C@]1(COP(=O)(O)OP(=O)(O)OP(=O)(O)O)O[C@@H](n2ccc(N)nc2=O)[C@H](F)[C@@H]1O. As to the kind of experiment: purified protein, by the assay type. The conditions noted are these: pH 7.5.
The subject of data set [5] is WT RSV L polymerase-dependent luciferase activity. As to the kind of experiment: cells. Format: cell-based, Respiratory syncytial virus (RSV). The conditions noted are these: human respiratory syncytial virus, HEp-2 cells, minigenome luciferase.
For data set [6], the system named is QUAD RSV L polymerase-dependent luciferase activity. As to the kind of experiment: cells. It counts as cell-based, Respiratory syncytial virus (RSV), HEp-2 cells.
Another data set deals with Y1631H RSV polymerase (Human respiratory syncytial virus A, UniProt P28887, Y1631H). As to the kind of experiment: Single nucleotide incorporation, Y1631H mutant. Format: biochemical.
Data set [7] has as its target T2, WT RSV L-P. The conditions noted are these: cited from earlier work.
In data set [8] the target is T1, QUAD RSV L-P (M628L, A789V, L795I, I796V). To be noted: cited from earlier work.
The target of data set [9] is RSV polymerase containing the Y1631H mutation in the L subunit (Human respiratory syncytial virus A, UniProt P28887, Y1631H). As to the kind of experiment: Biotin-primer extension RdRp assay, Y1631H. Format: biochemical. To be noted: Y1631H IC50 vs WT IC50.
Data set [10] addresses T2, WT RSV L-P. It counts as biochemical. To be noted: 10 μM.
The target in a further data set is T3, RSV L-P dimer (Human respiratory syncytial virus A, UniProt P28887).
T3 construct: made in house; host or cells: insect cells
As to the kind of experiment: Ni-NTA pull-down assay of RSV L-P. It counts as binding. The conditions noted are these: 10 μM, 30 minutes pre-incubation. The protocol:
The enzyme-inhibitor complex was pre-incubated for 30 minutes, after which nickel beads were used to pull down the histidine-tagged P subunit. The bound protein was washed on the beads and visualized by SDS PAGE. When the experiment was performed in the presence of DMSO, the untagged L subunit remained noncovalently bound to P (Fig 6A, lane 1).
Beads were collected by centrifugation, and washed in 500 μL buffer containing 20mM Tris pH 7.5, 10 mM KCl, 6 mM MgCl2, 0.01% Triton X-100, and 2 mM DTT. Beads were resuspended in 20 μL loading buffer (4% SDS, 20% glycerol, 0.12M Tris pH 7, and 10% BME) and heated for 5 minutes at 95°C. Samples were run on a 4% to 12% SDS PAGE gel alongside PageRuler prestained marker (Invitrogen) and stained using SimplyBlue SafeStain (Thermo Fisher Scientific).

[11] abbreviates: WT RSV L-P, single nucleotide incorporation.

Usually Km stands for the substrate concentration at which the rate is half of its maximum. In general, EC50 refers to the midpoint of the concentration-response curve. Low readings indicate higher potency in that assay, high ones lower potency in that assay.

Turning to `C[C@@H](F)[C@]1(COP(=O)(O)OP(=O)(O)OP(=O)(O)O)O[C@@H](n2ccc(N)nc2=O)[C@H](F)[C@@H]1O` [1-fluoroethyl (FCH3CH2)], the “Resistance (QUADdiscrimination / WTdiscrimination)” value in data set [1] is more than 3 fold.
Consider ATP [reference compound], for which the Michaelis constant (Km) on WT RSV L-P [2] (setting [11]) came out at 2.2 ± 0.2 µM; in data set [1] it was 1.8 ± 0.3 µM.
As for `[N-]=[N+]=N[C@]1(COP(=O)(O)OP(=O)(O)OP(=O)(O)O)O[C@@H](n2ccc(N)nc2=O)[C@H](F)[C@@H]1O` [2'F-4'N3-CTP], the “Resistance (QUADdiscrimination / WTdiscrimination)” value in data set [1] (listed as azido (N3-)) is on record as “no resistance”.
As to (Human respiratory syncytial virus A2), the Km was 19.7 ± 6.7 µM in [3] and 0.62 ± 0.042 µM in data set [4].
Turning to `Nc1ccn([C@@H]2O[C@@](CO)(CBr)[C@@H](O)[C@H]2F)c(=O)n1` [2'F-4'BrCH2-cytidine], in data set [5], the response was half-maximal at 1.6 ± 0.6 µM (EC50). Also, the “Loss in inhibition potency in the presence of the QUAD mutations” value in data set [6] (QUAD vs WT minigenome) is 47 fold.
`Nc1ccn([C@@H]2O[C@](CF)(COP(=O)(O)OP(=O)(O)OP(=O)(O)O)[C@@H](O)[C@H]2F)c(=O)n1` [fluoromethyl (FCH2)]: the “Resistance (QUADdiscrimination / WTdiscrimination)” value in data set [1] is on record as more than 3 fold.
With 2'F-4'ClCH2-GTP, at WT RSV L-P [2], the Chain termination effect result is recorded as “did not completely block RNA synthesis”, the “Discrimination (Km NTP analog / Km NTP)” value stood at 5.6±0.6 fold and the Km was found to be 5.8 ± 1.4 µM. In addition, in data set [1], the “Discrimination (Km NTP analog / Km NTP)” value is 94.4 fold and 94.4±17.7 fold; the Km stood at 31.1 ± 15 µM; the “Resistance (QUADdiscrimination / WTdiscrimination)” value was 17 fold.
Regarding CTP [reference compound], the Km was 0.042 ± 0.009 µM on Y1631H RSV polymerase; 0.056 ± 0.01 µM at WT RSV L-P [7] (WT RSV L-P, n = 4, read-out: Km CTP); 0.028 ± 0.005 µM in [8] (QUAD RSV L-P, n = 2, read-out: Km CTP).
With 2'F-4'ClCH2-ATP, on WT RSV L-P [2], the Chain termination effect result is given as “immediate chain terminator”; the “Discrimination (Km NTP analog / Km NTP)” value is 12 fold and 12±2.5 fold; the Michaelis-Menten constant (Km) stood at 27 ± 7.8 µM. In addition, in data set [1], the “Discrimination (Km NTP analog / Km NTP)” value is given as 12.9±1.1 fold, the Michaelis-Menten constant (Km) amounted to 23.6 ± 5.8 µM and the “Resistance (QUADdiscrimination / WTdiscrimination)” value is given as 1.1 fold.
Regarding `Nc1ccn([C@@H]2O[C@](CCl)(COP(=O)(O)OP(=O)(O)OP(=O)(O)O)[C@@H](O)[C@H]2F)c(=O)n1` [ALS-8112-TP, 2'F-4'ClCH2-cytidine triphosphate], in data set [1] (listed as chloromethyl (ClCH2)), the “Resistance (QUADdiscrimination / WTdiscrimination)” value was more than 3 fold. Moreover, the “Discrimination of the CTP analog” value at Y1631H RSV polymerase amounted to 18 fold. For the same compound, the Discrimination on WT RSV L-P [7] (WT RSV polymerase) is 13 fold. For the same compound, in [8] (QUAD vs WT RSV L-P), the “Resistance (increase in discrimination by QUAD)” value is reported as 4.6 fold.
For the compound GTP [reference compound], the results for the Km (at WT RSV L-P [2] (setting [11]); in data set [1]) were 1.1 ± 0.4 µM and 0.3 ± 0.1 µM, respectively.
Take `[N-]=[N+]=N[C@]1(CO)O[C@@H](n2ccc(N)nc2=O)[C@H](F)[C@@H]1O` [2'F-4'N3-cytidine]: the EC50 in data set [5] turned out to be 1.3 ± 0.3 µM; in [6] (human respiratory syncytial virus, QUAD L, HEp-2 cells, minigenome luciferase) it was 2.2 ± 0.5 µM.
As for `Nc1ccn([C@@H]2O[C@@](COP(=O)(O)OP(=O)(O)OP(=O)(O)O)(C3CC3)[C@@H](O)[C@H]2F)c(=O)n1` [cyclopropyl (CH2CH2CH2)], the “Resistance (QUADdiscrimination / WTdiscrimination)” value in [1] was “no resistance”.
Consider `Nc1ccn([C@@H]2O[C@](CBr)(COP(=O)(O)OP(=O)(O)OP(=O)(O)O)[C@@H](O)[C@H]2F)c(=O)n1` [bromomethyl (BrCH2)], for which, in data set [1], the “Resistance (QUADdiscrimination / WTdiscrimination)” value is on record as more than 3 fold.
Consider `O=C(NC1CC1)c1cc2c(s1)-c1ccccc1N(C(=O)c1ccc(NC(=O)c3cccnc3N3CCC4(CC3)COC4)cc1)CC2` [AZ-27], for which the “Resistance compared to the WT enzyme” value in data set [9] came to 940 fold. For the same compound, the “Inhibition of +1 and +2 RNA products” value on WT RSV L-P [10] (30-minute reaction) is on record as “no inhibition”. Also, on WT RSV L-P [10] (30-minute reaction, position +4 and beyond), the “Inhibition of +4–7 RNA products” value was 75–85%. In addition, on WT RSV L-P [10] (ATP+CTP from 1 to 100 μM), the “Inhibition behavior with respect to NTPs” value is “non-competitive inhibition behavior”. Further, the “Effect on L binding to P (L-P complex stability)” value at RSV L-P dimer is on record as “did not inhibit the ability of L to bind to P”.
On to `CSC[C@]1(COP(=O)(O)OP(=O)(O)OP(=O)(O)O)O[C@@H](n2ccc(N)nc2=O)[C@H](F)[C@@H]1O` [methyl-thio-methyl (CH3SCH2)], for which the “Resistance (QUADdiscrimination / WTdiscrimination)” value in data set [1] is “no resistance”.
